Columns and labels:
[1] = test system: sciatic nerve block in rat; assay: PWL and inter-paw differential (IPD), perineural versus subcutaneous dexmedetomidine in sciatic nerve block (Example 3); format: in vivo
Procedure: The relative systemic versus peripheral perineural effects of dexmedetomidine were determined by observing the PWL for the blocked and unblocked (control) paw. The effect of sensory analgesia (as measured by the PWL) to the operative paw compared with the control paw was calculated and is reported as the inter-paw differential (IPD=100*[Operative PWL−Control PWL]/Control PWL).
Data are presented as mean±SEM.

[2] = test system: sciatic nerve block in rat; assay: Paw withdrawal latency (PWL) to a heat stimulus after perineural sciatic nerve block, dexmedetomidine dose response (Example 2); format: in vivo; conditions: operative paw, ropivacaine 0.5%, heat cut-off 15 seconds, n = 10
Procedure: Commercially available 0.75% ropivacaine solution was mixed with preservative free normal saline or dexmedetomidine to make final solutions. The control group received 0.5% ropivacaine alone. In the experimental groups, ropivacaine was mixed with dexmedetomidine to make solutions based on the individual rat's weight 24 hours prior to experimental testing. […] The pH of ropivacaine (5.69±0.05) was used as the standard to which all solutions were maintained.
Fifty male Sprague Dawley rats (caesarean-derived Sprague-Dawley) weighing 250-350 g were purchased from Charles River Laboratories (Wilmington, Mass.). Rats without any signs of neurobehavioral impairment were maintained for one week in 12:12 light-dark cycles with lights on from 6 a.m. to 6 p.m. For the three days prior to surgery and neurobehavioral monitoring, rats were conditioned to the paw withdrawal chambers for one hour per day. Each rat was placed in the same position of the six-chamber container during the conditioning and neurobehavioral testing. On each of the three days prior to testing, both paws of the rat were exposed to the heat stimulus as a portion of the conditioning process. The day before surgery and testing, five PWL baseline measurements were obtained on both the operative and control paws. The mean value of the five measures was recorded as the rat's baseline value.
The IITC Life Sciences Inc. Plantar Analgesia Meter (Series 8 Model 336T, IITC Life Science Inc., Woodland Hills, Calif.) was used to test paw withdrawal latency (PWL) (Hargreaves et al. (1988) Pain 32:77-88; herein incorporated by reference in its entirety). The analgesia meter used a test unit containing a heat source that radiated a light beam. An angled mirror on the test unit was used to locate the correct target on the paw. The meter was set with an active intensity of 40%, an idle intensity of 10%, and a cut-off time for the heat source of 15 seconds. The time to paw withdrawal from the heat stimulus comprised the PWL measure (reaction time was measured to 0.01 s). An acrylic six-chamber container was used to separate the rats that were placed on the glass (Model 400) heated base. In order to decrease the level of variance in PWL measurements, the temperature of the base was set to 30 degrees Celsius five minutes prior to and throughout each round of PWL testing (Ding et al. (1997) Neurosci. Methods 76:183-191; herein incorporated by reference in its entirety).
An investigator blinded to the drug condition carried out the sciatic nerve injections. Each rat was randomly assigned to one of the five drug conditions. The laboratory assistants responsible for drug preparation were blinded to the surgery, neurobehavioral monitoring, and PWL measures. Rats were anesthetized and maintained with 2.5% isoflurane. […] Following the dissection, the sciatic nerve was clearly identified at a point proximal its bifurcation. All rats received unilateral injections of 0.2 ml of drug into the perineural space below the clear fascia covering the nerve and proximal to the bifurcation of the sciatic nerve. Injections were made using a tuberculin syringe and a 30-gauge needle. The time of the injection was recorded and deemed the zero time point. A non-absorbable muscle fascia suture was placed at the midpoint of the injection site as a marker for subsequent nerve removal.

[3] = test system: sciatic nerve block in rat; conditions: high-dose dexmedetomidine alone or combined with approved concentrations of bupivacaine; cited from earlier work
[4] = drug(s) injected perineurally, saline subcutaneously, ropivacaine 0.5%, DEX 20.0 μg/kg, p<0.05

Row | SMILES | PWL scores of the operative paws, 30-90 min time points ([1]; dense blockade, cutoff threshold 15 s, ropivacaine 0.5%, DEX 20.0 μg/kg) [s] | time points with significant differences between the operative and control paws (PWL) [1, 4] [min] | Mean PWL values, 90 min ([2]; 90 min after 0.2 ml perineural sciatic injection) [s] | Mean PWL values, 120 min ([2]; 120 min after 0.2 ml perineural sciatic injection) [s] | Mean PWL values, 150 min ([2]; 150 min after 0.2 ml perineural sciatic injection) [s] | Mean PWL values, 180 min ([2]; 180 min after 0.2 ml perineural sciatic injection) [s] | Mean PWL values, 210 min ([2]; 210 min after 0.2 ml perineural sciatic injection) [s] | neurotoxicity [3] | sensory blockade of the operative paw ([1]; DEX 20.0 μg/kg alone, perineural) | inter-paw differential (IPD), relative effect ([1]; DEX 20.0 μg/kg alone, perineural, significantly different at 30 and 60 minutes (p=0.006 and 0.002)) | time points with significant differences between the operative and control paws (PWL) ([1]; DEX 20.0 μg/kg injected subcutaneously, perineural 0.5% ropivacaine or saline)
1 | CCCN1CCCC[C@H]1C(=O)Nc1c(C)cccc1C [Ropivacaine, ropivacaine] | ~15 | 30 to 90 | 13.25 | 6.13 | 4.74 | 5.35 | 5.05 |  |  |  | 
2 | Cc1cccc([C@H](C)c2cnc[nH]2)c1C [dexmedetomidine, Dexmedetomidine] |  | 60 |  |  |  |  |  | no neurotoxicity | brief, partial sensory blockade | greater than subcutaneous dexmedetomidine alone | affected both paws equally

Reference: patent US8410140B2, “Anesthetic methods and compositions” (The Regents of the University of Michigan, priority 2009, dated 2013)
